From publication PMC9588780, “Purification and structural characterization of the Na^+-translocating ferredoxin: NAD^+ reductase (Rnf) complex of Clostridium tetanomorphum” (Nature Communications, 2022)

Key:
[1] = molecular target: T1, Rnf complex (RnfABCDEG), RnfG site (Clostridium tetanomorphum, UniProt A0A923J084); assay: cryo-EM structure ([…] Å); UV fluorescence on SDS-PAGE; format: binding; details: covalent; phosphoester to Thr164 of RnfG
T1 construct: native six-subunit membrane complex purified from C. tetanomorphum, in MSP1D1/DMPC nanodisc; RnfG 20 kDa; with Ion-translocating oxidoreductase complex subunit A; Ion-translocating oxidoreductase complex subunit B; Ion-translocating oxidoreductase complex subunit C; Ion-translocating oxidoreductase complex subunit D; Ion-translocating oxidoreductase complex subunit E

[2] = molecular target: T2, Rnf complex (RnfABCDEG), RnfD site (Clostridium tetanomorphum, UniProt A0A923IYK2); assay: cryo-EM structure ([…] Å); format: binding
T2 construct: native six-subunit membrane complex purified from C. tetanomorphum, in MSP1D1/DMPC nanodisc; RnfD 33 kDa; with Ion-translocating oxidoreductase complex subunit A; Ion-translocating oxidoreductase complex subunit B; Ion-translocating oxidoreductase complex subunit C; Ion-translocating oxidoreductase complex subunit E; Ion-translocating oxidoreductase complex subunit G

[3] = molecular target: T3, Rnf complex (RnfABCDEG), RnfC site (Clostridium tetanomorphum, UniProt A0A923IZ11); assay: NADH oxidation, hexacyanoferrate(III) reduction at […] nm; format: biochemical; details: 200 µM NADH, 100 µM hexacyanoferrate(III), 150 mM NaCl, 50 mM potassium phosphate pH 7.5, 0.05% DDM, room temperature, anaerobic
T3 construct: gene rsxC; native six-subunit membrane complex purified from C. tetanomorphum in DDM (MSP1D1/DMPC nanodisc for cryo-EM); RnfC 1-435, 47 kDa; complex ca. 200-250 kDa; with Ion-translocating oxidoreductase complex subunit A; Ion-translocating oxidoreductase complex subunit B; Ion-translocating oxidoreductase complex subunit D; Ion-translocating oxidoreductase complex subunit E; Ion-translocating oxidoreductase complex subunit G

[4] = molecular target: T3, Rnf complex (RnfABCDEG), RnfC site; assay: coupled enzyme assay with Etf/butyryl-CoA dehydrogenase, […] nm; format: biochemical; details: reduced ferredoxin as electron donor (50 µM Fd), crotonyl-CoA, room temperature
[5] = molecular target: T4, RnfD subunit of the Na+-translocating ferredoxin:NAD+ reductase (Rnf) complex of Clostridium tetanomorphum (Clostridium tetanomorphum (endogenous …, UniProt A0A923IYK2 1-310, FMN covalently attached by its phospho group to the Thr153 hydroxy group)); assay: cryo-EM structure; native Rnf complex of C. tetanomorphum reconstituted into a DMPC-filled MSP1D1 nanodisc; grids prepared in an anaerobic tent (95% N2, 5% H2); 88,423 particles, overall resolution 4.27 Å; details: both partners purified
T4 construct: native subunit of the purified Rnf complex; Also holds a riboflavin
T4 sequence (looked up): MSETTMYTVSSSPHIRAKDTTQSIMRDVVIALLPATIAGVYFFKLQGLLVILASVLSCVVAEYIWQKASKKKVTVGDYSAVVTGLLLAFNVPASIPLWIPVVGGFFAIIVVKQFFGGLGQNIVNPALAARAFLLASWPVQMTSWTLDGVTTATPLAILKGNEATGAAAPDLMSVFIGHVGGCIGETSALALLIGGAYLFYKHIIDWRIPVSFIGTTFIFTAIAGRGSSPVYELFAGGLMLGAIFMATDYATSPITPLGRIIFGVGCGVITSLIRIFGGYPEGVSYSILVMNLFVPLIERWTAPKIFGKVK

T3 sequence (A0A923IZ11 1-435, one chain of several): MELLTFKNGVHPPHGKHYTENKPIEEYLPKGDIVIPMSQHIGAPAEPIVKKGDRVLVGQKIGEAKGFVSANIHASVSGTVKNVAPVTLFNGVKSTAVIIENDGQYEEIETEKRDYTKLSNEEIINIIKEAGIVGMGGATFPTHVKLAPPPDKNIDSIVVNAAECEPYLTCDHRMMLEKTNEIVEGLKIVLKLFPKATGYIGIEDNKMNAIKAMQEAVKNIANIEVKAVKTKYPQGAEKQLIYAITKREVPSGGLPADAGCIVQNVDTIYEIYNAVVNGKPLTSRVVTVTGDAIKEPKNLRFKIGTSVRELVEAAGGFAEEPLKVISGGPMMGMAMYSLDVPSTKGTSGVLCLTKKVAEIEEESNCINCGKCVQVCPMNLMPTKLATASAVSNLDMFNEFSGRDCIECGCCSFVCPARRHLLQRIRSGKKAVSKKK
T3 sequence (A0A923J0P9 1-191 partner, one chain of several): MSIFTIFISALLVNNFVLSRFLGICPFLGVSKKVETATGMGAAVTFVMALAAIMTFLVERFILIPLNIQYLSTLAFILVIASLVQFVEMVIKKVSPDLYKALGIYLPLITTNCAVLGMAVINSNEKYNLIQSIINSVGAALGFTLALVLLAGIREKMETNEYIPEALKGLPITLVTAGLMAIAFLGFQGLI
T3 sequence (A0A923IZB8 1-202 partner, one chain of several): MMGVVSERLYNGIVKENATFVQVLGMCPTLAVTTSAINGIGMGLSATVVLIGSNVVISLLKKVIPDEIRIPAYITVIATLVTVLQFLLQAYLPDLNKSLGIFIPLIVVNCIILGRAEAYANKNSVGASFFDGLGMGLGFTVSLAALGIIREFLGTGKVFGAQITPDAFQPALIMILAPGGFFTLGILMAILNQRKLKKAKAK
T3 sequence (A0A923J084 1-189 partner, one chain of several): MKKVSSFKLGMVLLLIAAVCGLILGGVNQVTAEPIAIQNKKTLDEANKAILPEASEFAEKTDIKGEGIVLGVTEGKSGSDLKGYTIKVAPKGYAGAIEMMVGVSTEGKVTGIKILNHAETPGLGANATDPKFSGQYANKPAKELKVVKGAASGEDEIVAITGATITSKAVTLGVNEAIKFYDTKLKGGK
T2 sequence (A0A923IZ11 1-435 partner, one chain of several): as the sequence (A0A923IZ11 1-435, one chain of several) above
T2 sequence (A0A923J0P9 1-191 partner, one chain of several): as the sequence (A0A923J0P9 1-191 partner, one chain of several) above
T2 sequence (A0A923IZB8 1-202 partner, one chain of several): as the sequence (A0A923IZB8 1-202 partner, one chain of several) above
T2 sequence (A0A923J084 1-189 partner, one chain of several): as the sequence (A0A923J084 1-189 partner, one chain of several) above
T1 sequence (A0A923J084 1-189, one chain of several): as the sequence (A0A923J084 1-189 partner, one chain of several) above
T1 sequence (A0A923J0P9 1-191 partner, one chain of several): as the sequence (A0A923J0P9 1-191 partner, one chain of several) above
T1 sequence (A0A923IZB8 1-202 partner, one chain of several): as the sequence (A0A923IZB8 1-202 partner, one chain of several) above
T1 sequence (A0A923IZ11 1-435 partner, one chain of several): as the sequence (A0A923IZ11 1-435, one chain of several) above

## Cc1cc2nc3c(=O)[nH]c(=O)nc-3n(C[C@H](O)[C@H](O)[C@H](O)COP(=O)(O)O)c2cc1C [FMN]
[1]
  cryo-EM structure (4.27 Å); UV fluorescence on SDS-PAGE: FMN is covalently attached via its phospho group to the conserved Thr164
[2]; covalent, phosphoester to Thr153 of RnfD (covalent FMN seen in structure; RnfD band not detected by UV on SDS-PAGE)
  cryo-EM structure (4.27 Å): The phospho group of FMNRnfD is covalently attached to the well-conserved Thr153 hydroxy group

## NC(=O)C1=CN([C@@H]2O[C@H](COP(=O)(O)OP(=O)(O)OC[C@H]3O[C@@H](n4cnc5c(N)ncnc54)[C@H](O)[C@@H]3O)[C@@H](O)[C@H]2O)C=CC1 [NADH]
[3]
  NADH oxidation, hexacyanoferrate(III) reduction at 420 nm: using hexacyanoferrate(III) as electron acceptor for NADH oxidation

## NC(=O)c1ccc[n+]([C@@H]2O[C@H](COP(=O)(O)OP(=O)(O)OC[C@H]3O[C@@H](n4cnc5c(N)ncnc54)[C@H](O)[C@@H]3O)[C@@H](O)[C@H]2O)c1 [NAD^+]
[4]
  coupled enzyme assay with Etf/butyryl-CoA dehydrogenase, 340 nm: The biological relevant NAD^+ reduction with Fdred was determined with a coupled enzyme assay

## Cc1cc2nc3c(=O)[nH]c(=O)nc-3n(C[C@H](O)[C@H](O)[C@H](O)CO)c2cc1C [RBF, riboflavin]
[2]; cytoplasmic half-channel pocket of RnfD near Asn124 and Asp248, density assigned with help of A. vinelandii Rnf structure
  cryo-EM structure (4.27 Å): the density becomes interpretable as riboflavin

B1: RnfB subunit of the Na+-translocating ferredoxin:NAD+ reductase (Rnf) complex of Clostridium tetanomorphum (natural protein, UniProt A0A923E755 1-274, looked up)
chain: MEGLLFPVLSLGGLGVVFGLLLGYASKKFAVEVDERVPMVRAALPGANCGGCGFAGCDAYADAVVNAGAKPNGCPVGGAACAAKIAEIMGVVVDSSEPKKAYVKCQGTCDKAKEKYEYYGAMTCVDAANIPGAGSKTCGFGCLGLGSCVQVCAFDAIHVENGIAVVDEEACTGCGACVSICPKSVIELTPMSKKVRISCNSHDKGIEVKNACSVGCLSCGLCVRNCPSEAITMVNNLPVIDYDKCTQCGVCVGKCPTKAIVNLNTNVSKEASNN
notes: native subunit of the purified Rnf complex; Carries five reliably identified [4Fe-4S] clusters; a sixth in FdI is held likely; also called ferredoxin subunit RnfB
[5]
  binding result: binds
